Here are results for seven molecules from US8946142B2, “Beta-arrestin effectors and compositions and methods of use thereof” (Trevena, Inc., priority 2012, dated 2015).

Common to all, as to assay type: cell-based
Assay [1] addresses T1, human AT1R (Homo sapiens, UniProt P30556).
T1 sequence (P30556 1-359): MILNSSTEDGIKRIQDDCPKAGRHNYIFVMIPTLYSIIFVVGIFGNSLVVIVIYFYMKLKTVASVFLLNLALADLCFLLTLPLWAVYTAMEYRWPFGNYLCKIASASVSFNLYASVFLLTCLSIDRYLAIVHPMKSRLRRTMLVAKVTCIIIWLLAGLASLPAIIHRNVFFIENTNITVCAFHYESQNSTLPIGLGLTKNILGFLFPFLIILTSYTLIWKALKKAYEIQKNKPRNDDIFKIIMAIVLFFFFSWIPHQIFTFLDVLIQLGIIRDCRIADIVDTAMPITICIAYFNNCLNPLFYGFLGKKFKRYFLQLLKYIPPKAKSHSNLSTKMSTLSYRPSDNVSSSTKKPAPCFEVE
The experiment in a line: IP1 accumulation assay (IP1 G-protein assay), human AT1R. The note with it: for Emax: read-out: Span (relative to hAngII). As to the method: A secondary measure of G protein coupling efficacy was also performed. IP3 is generated by activation of phospholipase C by Gα-q. IP3 is degraded to IP1, which can be forced to accumulate in cells by blocking degradation with lithium chloride. Thus we measured accumulation of IP1 to determine ligand efficacy for G protein activation.
IP1 accumulation generated by human and rat angiotensin 2 type 1 receptor (human AT1R and rat AT1aR, respectively) was measured with IP-One Tb kits purchased from Cisbio and used per the manufacturer's instructions. Clonal stably transfected cell lines expressing human AT1TR or rat AT1aR were used for all experiments.
For assays, 4,000-8,000 cells were seeded per well in 384-well small-volume microplates “HiBase” small-volume plate in volumes of 20 uL and allowed to grow overnight at 37° C. in 5% CO2. Cell growth media was then replaced with stimulation buffer supplied by Cisbio containing 50 mM lithium chloride. […] For agonist detection, peptides were then further diluted in stimulation buffer to add peptide to the cells to reach final concentrations ranging from 100 uM to 1 pM. Following addition of peptides, cells were incubated at 37° C. in 5% CO2 for 30 minutes and then lysed with 4 uL of pre-mixed HTRF IP-One reagents diluted per manufacturer's instructions (Cisbio). Microplates were incubated for 60-90 minutes at room temperature and then time-resolved fluorescence intensities were measured using a PHERAstar Plus microplate reader from BMG Labtech. IP1 accumulation was measured as change in ratio of time-resolved fluorescent intensities measured at 665 nm and 620 nm.

Assay [2] has as its target T1, human AT1R. The experiment in a line: beta-arrestin2 recruitment assay (PathHunter), human AT1R. The note with it: for Emax: 1 h, read-out: Span (relative to hAngII). As to the method: (§1) The proximal event in β-arrestin function mediated by GPCRs is recruitment to receptors following ligand binding and receptor phosphorylation by GRK's. Thus, the measure of β-arrestin recruitment was used to determine ligand efficacy for β-arrestin function.
(§2) B-arrestin-2 recruitment to the human and rat angiotensin 2 type 1 receptor (human AT1R and rat AT1aR, respectively) was measured with the PathHunter™ μl-arrestin assay (DiscoveRx Corporation, Fremont Calif.). Cells, plasmid(s), and detection reagent(s) were purchased from DiscoveRx, and assays were performed per manufacturer's instructions. Human AT1R and rat AT1aR were cloned into the pCMV-ProLink vector, verified by sequencing, and transfected into PathHunter β-arrestin HEK293 cells. Stably transfected clonal cell lines were selected with Hygromycin and G418. These clonal cell lines were used for all experiments.
(§3) For assays, 4,000-8,000 cells were seeded per well in 384-well microplates “HiBase” small-volume plate in volumes of 20 uL and grown overnight in the incubator (37° C., 5% CO2, saturated humidity). Peptides were dissolved in DMSO to a concentration of 10 mM. Peptides were then further diluted in assay buffer (Hank's balanced salt solution with 20 mM HEPES) to add peptide to the cells to reach final concentrations ranging from 100 μM to 1 pM. Cells were then incubated for 60 minutes at 37° C. in 5% CO2, followed by addition of 2 μL of PathHunter Detection Reagent to each well. The microplates were then incubated at room temperature for 60 minutes, and then luminescence was measured using a PHERAstar Plus microplate reader from BMG Labtech. B-arrestin-2 recruitment to receptors was measured as relative luminescence intensity expressed in arbitrary units.

Another assay deals with T2, rat AT1aR (Rattus norvegicus, UniProt P25095).
T2 sequence (P25095 1-359): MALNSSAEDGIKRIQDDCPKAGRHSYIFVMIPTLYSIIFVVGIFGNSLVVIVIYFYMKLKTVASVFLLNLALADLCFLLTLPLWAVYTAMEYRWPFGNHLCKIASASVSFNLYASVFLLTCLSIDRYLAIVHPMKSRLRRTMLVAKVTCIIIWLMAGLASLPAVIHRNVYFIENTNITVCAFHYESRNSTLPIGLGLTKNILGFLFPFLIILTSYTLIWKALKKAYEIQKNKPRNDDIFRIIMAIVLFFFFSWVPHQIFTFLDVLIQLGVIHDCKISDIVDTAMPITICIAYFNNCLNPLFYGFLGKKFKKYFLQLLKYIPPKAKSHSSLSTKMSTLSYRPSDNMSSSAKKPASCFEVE
Put plainly: beta-arrestin2 recruitment assay (PathHunter), rat AT1aR. The note with it: for Emax: 1 h, read-out: Span (relative to hAngII). As to the method:
as §1, §2, §3

Like-named read-outs stand apart in the source and are kept apart here. Where a SMILES comes first, the peptide text is derived from it. [ ]: non-standard residue; d: D form. Ac6c = NC1(C(=O)O)CCCCC1; Aib = CC(C)(N)C(=O)O; Sar = CNCC(=O)O

As to `CNCC(=O)N[C@@H](CCCNC(=N)N)C(=O)N[C@H](C(=O)N[C@@H](Cc1ccc(O)cc1)C(=O)NC1(C(=O)N[C@@H](Cc2c[nH]cn2)C(=O)N2CCC[C@H]2C(=O)N[C@@H](CCCNC(=N)N)C(=O)O)CCCCC1)C(C)C` [SEQ ID NO: 42, Sar-Arg-Val-Tyr-cyHex-His-Pro-Arg] (H-[Sar]RVY[Ac6c]HPR-OH), the EC50 was greater than 1.3 nM at human AT1R [1] (read-out: EC50); greater than 0.631 nM at human AT1R [1] (read-out: pEC50 (converted)); greater than 3.2 nM at human AT1R [2] (read-out: EC50); greater than 3.16 nM at human AT1R [2] (read-out: pEC50 (converted)); greater than 3.2 nM at rat AT1aR (read-out: EC50); greater than 3.16 nM at rat AT1aR (read-out: pEC50 (converted)). The Emax at human AT1R [1] is less than 103%; at human AT1R [2] it was less than 101%; on rat AT1aR it was less than 105%.

Consider `CNCC(=O)N[C@@H](CCCNC(=N)N)C(=O)N[C@H](C(=O)N[C@@H](Cc1ccc(O)cc1)C(=O)NC(C)(C)C(=O)N[C@@H](Cc1c[nH]cn1)C(=O)N1CCC[C@H]1C(=O)N[C@H](C(=O)O)C(C)C)C(C)C` [SEQ ID NO: 33, Sar-Arg-Val-Tyr-AA01-His-Pro-Val] (H-[Sar]RVY[Aib]HPV-OH), for which the EC50 was greater than 1.3 nM on human AT1R [1] (read-out: EC50); greater than 0.631 nM at human AT1R [1] (read-out: pEC50 (converted)); greater than 3.2 nM at human AT1R [2] (read-out: EC50); greater than 3.16 nM on human AT1R [2] (read-out: pEC50 (converted)); greater than 3.2 nM on rat AT1aR (read-out: EC50); greater than 3.16 nM at rat AT1aR (read-out: pEC50 (converted)). For the same molecule, the Emax at human AT1R [1] is less than 103%; at human AT1R [2], less than 101%; on rat AT1aR, less than 105%.

As for `CNCC(=O)N[C@@H](CCCNC(=N)N)C(=O)N[C@H](C(=O)N[C@@H](Cc1ccc(O)cc1)C(=O)N1CCC[C@H]1C(=O)N[C@@H](Cc1c[nH]cn1)C(=O)N1CCC[C@H]1C(=O)N[C@@H](CO)C(=O)O)C(C)C` [SEQ ID NO: 8, Sar-Arg-Val-Tyr-Pro-His-Pro-Ser] (H-[Sar]RVYPHPS-OH; N-terminus and C-terminus assumed), the Emax at human AT1R [1] is less than 103%; at human AT1R [2] it was less than 101%; at rat AT1aR it was less than 105%.

Take `CC[C@H](C)[C@H](NC(=O)[C@@H]1CCCN1C(=O)[C@H](Cc1c[nH]cn1)NC(=O)[C@@H]1CCCN1C(=O)[C@H](Cc1ccc(O)cc1)NC(=O)[C@@H](NC(=O)[C@H](CCCNC(=N)N)NC(=O)CNC)C(C)C)C(=O)O` [SEQ ID NO: 4, Sar-Arg-Val-Tyr-Pro-His-Pro-Ile] (H-[Sar]RVYPHPI-OH; N-terminus and C-terminus assumed): the Emax is less than 103% at human AT1R [1], less than 101% on human AT1R [2] and less than 105% at rat AT1aR.

For the molecule `CNCC(=O)N[C@@H](CCCCN)C(=O)N[C@H](C(=O)N[C@@H](Cc1ccc(O)cc1)C(=O)NC1(C(=O)N[C@@H](Cc2c[nH]cn2)C(=O)N2CCC[C@H]2C(=O)N[C@@H](C)C(=O)O)CCCCC1)C(C)C` [SEQ ID NO: 51, Sar-Lys-Val-Tyr-cyHex-His-Pro-Ala] (H-[Sar]KVY[Ac6c]HPA-OH), the EC50 on human AT1R [1] (read-out: EC50) is greater than 1.3 nM; at human AT1R [1] (read-out: pEC50 (converted)), greater than 0.631 nM; on human AT1R [2] (read-out: EC50) it was greater than 3.2 nM; on human AT1R [2] (read-out: pEC50 (converted)), greater than 3.16 nM; at rat AT1aR (read-out: EC50), greater than 3.2 nM; on rat AT1aR (read-out: pEC50 (converted)), greater than 3.16 nM. Moreover, the values for the Emax at human AT1R [1], at human AT1R [2] and at rat AT1aR were less than 103%, less than 101% and less than 105%, respectively.

As for `CNCC(=O)N[C@@H](CCSC)C(=O)N[C@H](C(=O)N[C@@H](Cc1ccc(O)cc1)C(=O)NC1(C(=O)N[C@@H](Cc2c[nH]cn2)C(=O)N2CCC[C@H]2C(=O)N[C@@H](C)C(=O)O)CCCCC1)C(C)C` [SEQ ID NO: 45, Sar-Met-Val-Tyr-cyHex-His-Pro-Ala] (H-[Sar]MVY[Ac6c]HPA-OH; N-terminus and C-terminus assumed), the Emax at human AT1R [1] is less than 103%; at human AT1R [2], less than 101%; at rat AT1aR, less than 105%.

As to `CNCC(=O)N[C@@H](CCCNC(=N)N)C(=O)N[C@H](C(=O)N[C@@H](Cc1ccc(O)cc1)C(=O)NC1(C(=O)N[C@@H](Cc2c[nH]cn2)C(=O)N2CCC[C@H]2C(=O)N[C@@H](CS)C(=O)O)CCCCC1)C(C)C` [SEQ ID NO: 34, Sar-Arg-Val-Tyr-cyHex-His-Pro-Cys] (H-[Sar]RVY[Ac6c]HPC-OH), the Emax on human AT1R [2] is less than 101%; at rat AT1aR it was less than 105%. In addition, the EC50 is greater than 3.2 nM at human AT1R [2] (read-out: EC50), greater than 3.16 nM on human AT1R [2] (read-out: pEC50 (converted)), greater than 3.2 nM at rat AT1aR (read-out: EC50) and greater than 3.16 nM at rat AT1aR (read-out: pEC50 (converted)).
